Patent publication US8618163B2, “Derivatives of cycloalkyl- and cycloalkenyl-1,2-dicarboxylic acid compounds having formyl peptide receptor like-1 (FPRL-1) agonist or antagonist activity” (Allergan, Inc., priority 2010, dated 2013)
Like-named read-outs stand apart in the source and are kept apart here.

How the values were obtained:
FPR1 = biological target: T1, FPR1 (Homo sapiens, UniProt P21462); test: compound-induced calcium activity on FLIPR Tetra in HEK-Gqi5 cells stable expressing FPR1; format: cell-based; design: FPR1 (rel. eff.): scale not given here; conditions: for FPR1 (rel. eff.): relative efficacy
T1 construct: expressed in transfected cells; host or cells: HEK-Gqi5 (HEK cells with chimeric G protein Gqi5)
T1 sequence (P21462 1-350): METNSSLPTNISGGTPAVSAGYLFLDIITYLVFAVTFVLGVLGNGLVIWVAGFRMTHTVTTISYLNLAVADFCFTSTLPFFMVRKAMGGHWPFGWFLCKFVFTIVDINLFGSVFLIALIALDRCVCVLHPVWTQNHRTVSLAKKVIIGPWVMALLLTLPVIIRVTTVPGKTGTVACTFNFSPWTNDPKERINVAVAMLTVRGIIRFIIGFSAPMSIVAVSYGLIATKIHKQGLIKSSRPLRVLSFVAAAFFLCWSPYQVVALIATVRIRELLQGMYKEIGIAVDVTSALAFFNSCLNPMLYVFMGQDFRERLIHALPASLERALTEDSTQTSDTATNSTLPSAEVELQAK
Protocol: (§1) CHO-Gal6 cells stably expressing FPRL1 were cultured in (F12, 10% FBS, 1% PSA, 400 μg/ml geneticin and 50 μg/ml hygromycin) and HEK-Gqi5 cells stable expressing FPR1 were cultured in (DMEM high glucose, 10% FBS, 1% PSA, 400 μg/ml geneticin and 50 μg/ml hygromycin). In general, the day before the experiment, 18,000 cells/well were plated in a 384-well clear bottom poly-d-lysine coated plate. The following day the screening compound-induced calcium activity was assayed on the FLIPR^Tetra. The drug plates were prepared in 384-well microplates using the EP3 and the MultiPROBE robotic liquid handling systems. Compounds were tested at concentrations ranging from 0.61 to 10,000 nM. Results are expressed as EC50 (nM) and efficacy values.

FPRL1 = biological target: T2, FPRL1 (Homo sapiens, UniProt P25090); test: compound-induced calcium activity on FLIPR Tetra in CHO-Gal6 cells stably expressing FPRL1; format: cell-based; conditions: for FPRL1 (rel. eff.): relative efficacy
T2 construct: expressed in transfected cells; host or cells: CHO-Gal6 (CHO cells with G alpha 16)
T2 sequence (P25090 1-351): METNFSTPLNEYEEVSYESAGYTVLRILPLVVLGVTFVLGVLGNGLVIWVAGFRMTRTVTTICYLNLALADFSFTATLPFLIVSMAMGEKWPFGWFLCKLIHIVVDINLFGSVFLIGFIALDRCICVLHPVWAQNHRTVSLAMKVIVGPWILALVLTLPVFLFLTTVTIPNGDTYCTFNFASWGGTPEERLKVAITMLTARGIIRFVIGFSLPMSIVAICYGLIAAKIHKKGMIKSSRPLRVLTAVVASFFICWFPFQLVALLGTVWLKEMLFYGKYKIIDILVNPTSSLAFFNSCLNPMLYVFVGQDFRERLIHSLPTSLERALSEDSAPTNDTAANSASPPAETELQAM
Protocol: as §1

[1] = class symbol NA, read-out: FPR1 EC50 (NA = Not Active)
[2] = calcium, FLIPR Tetra, tested 0.61 to 10,000 nM, read-out: FPRL1 EC50
[3] = calcium, FLIPR Tetra, tested 0.61 to 10,000 nM, read-out: FPR1 EC50

EC50 (FPR1; [1]) | EC50 (FPRL1; [2]) | FPRL1 (rel. eff.) (FPRL1; calcium, FLIPR Tetra) | FPR1 (rel. eff.) (FPR1; calcium, FLIPR Tetra) | EC50 (FPRL1; class symbol NA, read-out: FPRL1 EC50 (NA = Not Active)) | EC50 (FPR1; [3]) | Compound
> 10000 nM | 16 nM | 0.79 |  |  |  | CCc1ccc(NC(=O)[C@H]2[C@@H](C(=O)O)[C@H]3CC[C@@H]2C32CC2)cc1 (racemic) [Compound 40, (+/−)-(1R,2S,3R,4S)-3-((4-Ethylphenyl)carbamoyl)spiro[bicyclo[2.2.1]heptane-7,1′-cyclopropane]-2-carboxylic Acid]
 | 461 nM | 0.77 | 50 |  |  | CC(C)=C1[C@H]2C=C[C@@H]1[C@@H](C(=O)O)[C@H]2C(=O)Nc1ccc(Br)cc1 (racemic) [Compound 21, (+/−)-(1S,4R,5R,6S)-6-(4-Bromophenylcarbamoyl)[bicyclo[2.2.1]hept[2]ene-7-propan-2-ylidene]-5-carboxylic Acid]
> 10000 nM | 243 nM | 0.76 |  |  |  | CCOC(=O)C1C(C(=O)Nc2ccc(I)cc2)C2C=CC1C21CC1 (racemic) [Compound 17, Ethyl(+/−)-(1S,4R,5S,6R)-6-(4-Iodophenylcarbamoyl)spiro[bicyclo[2.2.1]hept[2]ene-7,1′-cyclopropane]-5-carboxylate]
> 10000 nM | 15 nM | 0.86 |  |  |  | CSc1ccc(NC(=O)[C@H]2[C@@H](C(N)=O)[C@H]3CC[C@@H]2C32CC2)cc1 (racemic) [Compound 53, (+/−)-(1S,2R,3S,4R)—N2-(4-(Methylthio)phenyl)spiro[bicyclo[2.2.1]heptane-7,1′-cyclopropane]-2,3-dicarboxamide]
> 10000 nM | 475 nM | 0.95 |  |  |  | C[S+]([O-])c1ccc(NC(=O)C2C(C(=O)O)C3CCC2C32CC2)cc1 (racemic) [Compound 70, (+/−)-(1R,2S,3R,4S)-3-((4-Methylsulfinyl)phenyl)carbamoyl)spiro[bicyclo[2.2.1]-heptane-7,1′-cyclopropane]-2-carboxylic Acid]
> 10000 nM | 2360 nM | 0.69 |  |  |  | O=C(O)C1C(C(=O)Nc2ccc(-c3ccccc3)cc2)C2C=CC1C21CC1 (racemic) [Compound 26, (+/−)-(1R,4S,5R,6S)-5-([1,1′-Biphenyl]-4-ylcarbamoyl)spiro[bicyclo[2.2.1]hept[2]ene-7,1′-cyclopropane]-6-carboxylic Acid]
> 10000 nM | 143 nM | 1.0 |  |  |  | O=C(O)C1=C(C(=O)Nc2ccc(Br)cc2)C2CCC1CC2 [Compound 60, (1s,4s)-3-((4-Bromophenyl)carbamoyl)bicyclo[2.2.2]oct-2-ene-2-carboxylic Acid]
 | < 1 nM | 0.98 | 0.76 |  | 2170 nM | O=C(O)C1C(C(=O)Nc2ccc(Br)cc2)C2CCC1C21CC1 (single isomer, unassigned) [Compound 10B]
> 10000 nM |  | ND (0.96) |  |  |  | CSc1ccc(NC(=O)[C@H]2[C@@H](C(N)=O)[C@H]3CC[C@@H]2C3(C)C)cc1 (racemic) [Compound 56, (+/−)-(1S,2R,3S,4R)-7,7-Dimethyl-N2-(4-(methylthio)phenyl)bicyclo[2.2.1]heptane-2,3-dicarboxamide]

Continued, compound first:

Compound | EC50 (FPR1; [1]) | EC50 (FPRL1; [2]) | FPRL1 (rel. eff.) (FPRL1; calcium, FLIPR Tetra) | FPR1 (rel. eff.) (FPR1; calcium, FLIPR Tetra) | EC50 (FPRL1; class symbol NA, read-out: FPRL1 EC50 (NA = Not Active)) | EC50 (FPR1; [3])
O=C(O)C1C(C(=O)Nc2cccc(C(F)(F)F)c2)C2C=CC1C21CC1 (racemic) [Compound 27, (+/−)-(1S,4R,5S,6R)-6-β3-(Trifluoromethyl)phenyl)carbamoyl)spiro[bicyclo-[2.2.1]hept[2]ene-7,1′-cyclopropane]-5-carboxylic Acid] | > 10000 nM | 2770 nM | 0.72 |  |  | 
O=C(O)C1C(C(=O)Nc2ccc(Br)cc2)C2CCC1C21CC1 (racemic) [Compound 10A] | > 10000 nM | 278 nM | 0.82 |  |  | 
O=C(O)[C@@H]1[C@H](C(=O)Nc2ccc(OC(F)(F)F)cc2)[C@@H]2CC[C@H]1C21CC1 (racemic) [Compound 41, (+/−)-(1R,2S,3R,4S)-3-((4-(Trifluoromethoxy)phenyl)carbamoyl)spiro-[bicyclo[2.2.1]heptane-7,1′-cyclopropane]-2-carboxylic Acid] | > 10000 nM | 123 nM | 0.80 |  |  | 
CSc1ccc(NC(=O)C2C(C(N)=O)C3C=CC2C32CC2)cc1 (racemic) [Compound 49, (+/−)-(1R,4S,5R,6S)—N-5-(4-(Methylthio)phenyl)spiro[bicyclo[2.2.1]hept[2]ene-7,1′-cyclopropane]-5,6-dicarboxamide] | > 10000 nM | 97 nM | 0.90 |  |  | 
CSc1ccc(NC(=O)C2C(C(N)=O)C3C=CC2C32CC2)cc1 (racemic) [Compound 63, (+/−)-(1R,4S,5R,6S)—N^5-(4-(Methylthio)phenyl)spiro[bicyclo[2.2.1]hept[2]ene-7,1′-cyclopropane]-5,6-dicarboxamide] | > 10000 nM | 96.6 nM | 0.9 |  |  | 
O=C(O)C1C(C(=O)Nc2ccccc2)C2C=CC1C21CC1 (racemic) [Compound 7, (+/−)-(1S,4R,5S,6R)-6-(Phenylcarbamoyl)spiro[bicycle[2.2.1]hept[2]ene-7,1′cyclopropane]-5-carboxylic Acid] | > 10000 nM |  | ND (0.33) |  |  | 
CCc1ccc(NC(=O)C2C(C(N)=O)C3C=CC2C32CC2)cc1 (racemic) [Compound 48, (+/−)-(1R,4S,5R,6S)—N-5-(4-Ethylphenyl)spiro[bicyclo[2.2.1]hept[2]ene-7,1′-cyclopropane]-5,6-dicarboxamide] | > 10000 nM | 51 nM | 0.79 |  |  | 
CC(=O)Nc1ccc(NC(=O)[C@H]2[C@@H](C(=O)O)[C@H]3CC[C@@H]2C32CC2)cc1 (racemic) [Compound 75, (+/−)-(1S,2R,3S,4R)-2-((4-Acetamidophenyl)carbamoyl)spiro[bicyclo[2.2.1]-heptan-7,1′-cyclopropane]-3-carboxylic Acid] | > 10000 nM |  |  |  | > 10000 nM | 
(+/−)-(1S,2R,3S,4R)—N^2-(4-Bromophenyl)-N^3-methoxyspiro[bicyclo[2.2.1]heptane-7,1′-cyclopropane]-2,3-dicarboxamide [Compound 80] | > 10000 nM | 55.9 nM | 0.97 |  |  | 
CSc1ccc(NC(=O)C2C(C(=O)O)C3C=CC2C32CC2)cc1 (racemic) [Compound 35, (+/−)-(1S,4R,5S,6R)-6-((4-(Methylthio)phenyl)carbamoyl)spiro[bicyclo-[2.2.1]hept[2]ene-7,1′-cyclopropane]-5-carboxylic Acid] | > 10000 nM | 14 nM | 0.85 |  |  | 
O=C(O)C1C(C(=O)Nc2ccc(SC(F)(F)F)cc2)C2C=CC1C21CC1 (racemic) [Compound 4, (+/−)-(1S,4R,5S,6R)-6-(4-(Trifluoromethylthio)phenylcarbamoyl)Spiro[bicyclo[2.2.1]hept[2]ene-7,1′-cyclopropane]-5-carboxylic Acid] | > 10000 nM | 709 nM | 0.84 |  |  | 
CSc1ccc(NC(=O)[C@H]2[C@@H](C(=O)O)[C@H]3CC[C@@H]2C32CC2)cc1 (racemic) [Compound 42, (+/−)-(1R,2S,3R,4S)-3-((4-(Methylthio)phenyl)carbamoyl)spiro[bicyclo-[2.2.1]heptane-7,1′-cyclopropane]-2-carboxylic Acid] |  | 7 nM | 0.96 | 0.23 |  | 1100 nM
O=C(NCCO)[C@@H]1[C@H](C(=O)Nc2ccc(Br)cc2)[C@@H]2CC[C@H]1C21CC1 (racemic) [Compound 82, (+/−)-(1S,2R,3S,4R)—N^2-(4-Bromophenyl)-N^3-[2-hydroxyethyl]spiro[bicyclo[2.2.1]heptane-7,1′-cyclopropane]-2,3-dicarboxamide] | > 10000 nM | 8.8 nM | 0.86 |  |  | 
CNC(=O)[C@@H]1[C@H](C(=O)Nc2ccc(Br)cc2)[C@@H]2CC[C@H]1C21CC1 (racemic) [Compound 77, (+/−)-(1S,2R,3S,4R)—N^2-(4-Bromophenyl)-N^3-methylspiro[bicyclo[2.2.1]heptane-7,1′-cyclopropane]-2,3-dicarboxamide] | > 10000 nM | 9.7 nM | 0.95 |  |  | 
